The conditions of data set [1]: rat, in vivo. From the text: Rat bladders (5 groups of rats, n=3/group) were surgically catheterized under anesthesia and the catheter was externalized, tunneled subcutaneously, and connected to a vascular access harness (VAH) in the neck. Rats were transferred to individual metabolic cages with free access to food and water during the 1-week post-surgery recovery period. […] Plasma and bladder samples were collected at all time points.

Data set [2] concerns orthotopic UM-UC-1 bladder tumors. Description: Continuous bladder perfusion, orthotopic UM-UC-1 bladder cancer model. The following applies: 5 days perfusion; p<0.01 at 0.5, p<0.001 at 1.0 and 5 μg/mL nominal urine concentrations. The format is in vivo. The protocol:
Perfusion studies: The bladders of the study animals were cannulated on Day 1 and the animals were allowed to recover for 3 days. On Day 5, UM-UC-1 cells (2×10^6 cells) were injected into the lateral wall of each bladder. […] Based on the in vitro results, target urine concentrations of 0.5, 1.0, and 5.0 μg/mL were used in the perfusion experiments. Body weight, daily urine production, and daily water consumption were recorded. At necropsy, a plasma sample, bladder photographs, and bladder weight measurements were recorded.
The percent reduction in relative tumor weight between the control group and the drug perfusion groups was determined as an initial measure of efficacy.

Data set [3] concerns orthotopic RT-112 bladder tumor.
The conditions of data set [4]: first 6 hours.
Protocol: Solution formulations were prepared at various strengths in order to administer 0.5 mL volume to each rat bladder to dose 2, 6, and 18 mg/kg. Corresponding doses in nominal amount of drug were 0.5, 1.5, and 4.5 mg, respectively. After 1 hour of post-installation, rats were transferred to metabolic cages for collection of samples for PK determination. […] At each blood sampling time point, bladder samples were taken from each rat for drug analysis. In addition, bladders collected at 96 hours in the 18 mg/kg dose (high-dose) group were microscopically evaluated. Urine collections were limited to initial 0-6 hours post dose from all rats.
The next data set in a line: in vivo. Conditions: female, Domestic Yorkshire Crossbred, pig, urine, other: continuous intravesical infusion, 0.22 mg/kg/day.

SMILES strings stand for the structures. Where two headings read alike, the source gives them in different places. Marks after values point to notes of the source that are not given here.

Description for in vivo: On Day ~7 a catheter was surgically placed in the bladder of each animal. The distal end of the catheter was anchored to a subcutaneous site and attached to a vascular access port (VAP). The port was secured, and the animals were allowed to recover. Each animal was subsequently fitted with a portable infusion pump that was attached to the bladder catheter via the VAP. […] All excreted urine was collected in 24-hour intervals through Day 6 or 8. Blood samples were collected daily on study Days 1 to 8. Bladder tissue samples were collected from each animal at necropsy.

Consider `COc1cc(OC)cc(N(CCNC(C)C)c2ccc3ncc(-c4cnn(C)c4)nc3c2)c1` [erdafitinib, N-(3,5-dimethoxyphenyl)-N′-(1-methylethyl)-N-[3-(1-methyl-1H-pyrazol-4-yl)quinoxalin-6-yl]ethane-1,2-diamine], for which, in data set [1] (female, Sprague-Dawley, 72 h), the C72 h is 2,420^a ng/mL. Besides, in data set [1], the C96 h result is “BQL”. Moreover, in data set [1], the C120 h result is reported as “BQL”. Further, in data set [2], the “Bladder weight (tumor growth) vs vehicle control” value is “significant dose-related decrease in bladder weight”. Also, the “Bladder weight decrease vs vehicle control” value in data set [3] (1.0 μg/mL perfusate concentration, p<0.05) was “significant bladder weight reduction”. In addition, in data set [3] (erdafitinib-treated group, Day 11), the “Body weight loss, maximum mean value” was “up to −3%”. The “Percentage of compound eliminated as unchanged drug in the urine” value worked out at 23.5% in data set [4] (2 mg/kg intravesical), 19% in data set [4] (6 mg/kg intravesical) and 50.3% in data set [4] (18 mg/kg intravesical). In the data set “in vivo”, the concentration at 8 day worked out at 1270 ng/mL.

The values above are taken from US20260232660A1 (TARIS Biomedical LLC, priority 2023, published 2026).
